We go through 7 sequences from publication PMC7415810, “A novel nucleolin-binding peptide for Cancer Theranostics” (Theranostics, 2020).

One assay has as its system MDA-MB-231. Put plainly: Whole-cell binding assay on OBOC peptide beads. The following applies: peptide on TentaGel beads incubated with cells at 10^6 cells/ml; repeated 3 times. Type of assay: cell-based, human. The procedure:
(§1) The beads were washed extensively with double-distilled water and phosphate-buffered saline (PBS; Welgene Inc., Korea) before screening. Cancer and normal cells were detached from culture dishes with trypsin/EDTA (Gibco), washed with their corresponding culture medium, resuspended at 10^6 cells/ml, and incubated with OBOC beads in Petri dishes in a humidified CO2 incubator at 37 °C with shaking (60 rpm). Beads bound by cells appeared under a microscope as rosettes in which a central bead was covered by one or more layers of cells. The positive beads were picked with a pipette under an inverted microscope, treated with guanidine-HCL (8 M, 20 min) to remove cells and proteins on the bead surface, and subjected to a second round of screening with normal breast epithelial cells to eliminate false positive binding.
(§2) Note : Semiquantitative relative binding activity: “++++” very strong binding (>40 cells per bead), “+++” strong binding (30
(§3) -20 cells per bead), “+ +” moderate binding (20 - 10 cells per bead), “+” weak binding (5-10 cells per bead), “-” no binding. […]
(§4) Figure S1. A, Steps performed in peptide library synthesis and screening. 1, The split-mix synthesis method was performed to construct the combinatorial OBOC libraries. […]
(§5) sized. 3, OBOC libraries were incubated with cancer cells in a CO2 incubator. 4, Beads carrying ligands with an affinity for cell surface molecules became covered with cells. 5, The positive beads were picked with a pipette under an inverted microscope. 6, The peptide sequences for positive beads were determined by Edman microse - […]
(§6) peptide libraries. B, The binding specificities of the peptides against cancer cell and normal cells were deter- […]
(§7) breast and colorectal cancer cells and normal breast and colorectal cells were re-suspended at 10^6 cells/ml and incubated with beads. All experiments were repeated 3 times. Scale bar, 200 μm.

A further assay concerns MCF-10A. Put plainly: Whole-cell binding assay on OBOC peptide beads. The format is cell-based, human. To be noted: peptide on TentaGel beads incubated with cells at 10^6 cells/ml; repeated 3 times. The procedure:
as §1, §2, §3, §4, §5, §6, §7

As for ADHRHRRSG [AGM-331], in the assay with MDA-MB-231, the “Semiquantitative relative binding activity, MDA-MB-231” value is reported as “++++ (very strong binding (>40 cells per bead))”. Moreover, the “Semiquantitative relative binding activity, MCF-10A” value in the assay on MCF-10A is on record as “++ (moderate binding (20 - 10 cells per bead))”.

For the sequence AVARARRRR [AGM-332], the “Semiquantitative relative binding activity, MDA-MB-231” value in the assay on MDA-MB-231 is listed as “+++ (strong binding (30 -20 cells per bead))”. Further, in the assay on MCF-10A, the “Semiquantitative relative binding activity, MCF-10A” value is reported as “++ (moderate binding (20 - 10 cells per bead))”.

Take “FGRLKKPLK [AGM-335, 9mer peptide hit from OBOC screening]”: in the assay with MDA-MB-231, the “Semiquantitative relative binding activity, MDA-MB-231” value is “+ (weak binding (5-10 cells per bead))”. The “Semiquantitative relative binding activity, MCF-10A” value in the assay with MCF-10A is listed as “+ (weak binding (5-10 cells per bead))”.

On to “KRRRKAPTD [AGM-337, 9mer peptide hit from OBOC screening]”, for which the “Semiquantitative relative binding activity, MDA-MB-231” value in the assay on MDA-MB-231 was “+ (weak binding (5-10 cells per bead))”. Further, the “Semiquantitative relative binding activity, MCF-10A” value with MCF-10A is reported as “+ (weak binding (5-10 cells per bead))”.

With “KRRRRERAG [AGM-336, 9mer peptide hit from OBOC screening]”, the “Semiquantitative relative binding activity, MDA-MB-231” value in the assay with MDA-MB-231 is reported as “+++ (strong binding (30 -20 cells per bead))”. Moreover, the “Semiquantitative relative binding activity, MCF-10A” value in the assay on MCF-10A is reported as “+++ (strong binding (30 -20 cells per bead))”.

“RFLKNKKAR [AGM-333, 9mer peptide hit from OBOC screening]”: in the assay with MDA-MB-231, the “Semiquantitative relative binding activity, MDA-MB-231” value is on record as “++ (moderate binding (20 - 10 cells per bead))”. Also, in the assay on MCF-10A, the “Semiquantitative relative binding activity, MCF-10A” value is listed as “+++ (strong binding (30 -20 cells per bead))”.

For the sequence “RWLKNKKAR [AGM-334, 9mer peptide hit from OBOC screening]”, the “Semiquantitative relative binding activity, MDA-MB-231” value with MDA-MB-231 is on record as “++ (moderate binding (20 - 10 cells per bead))”. Further, the “Semiquantitative relative binding activity, MCF-10A” value with MCF-10A was “+++ (strong binding (30 -20 cells per bead))”.
